Some test systems named below: M14 melanoma; PC-3 prostate; SF-539 CNS; MDA-MB-435; CCRF-CEM leukemia; HS 578T breast; SK-OV-3 ovarian; NCI-H23 lung; MALME-3M melanoma; NCI-H226 lung.
Common to all, as to experiment: NCI tumour cell line growth inhibition, 48 h

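These data come from cells grown in 96-well plates and exposed to compound for 48 hours at five concentrations. At the TGI there is no net growth.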

Consider `CN(C)c1ccc(/C=c2/c3cc([N+](=O)[O-])ccc3n3c2cc(-c2ccccc2)[n+]3C)cc1`, for which the TGI came to 2.66 µM with M14 melanoma; 7.27 µM in the test on PC-3 prostate; 3.6 µM in the test with SF-539 CNS; 1.84 µM in the test with MDA-MB-435; 5.57 µM in the test with CCRF-CEM leukemia; 7.97 µM with HS 578T breast. The TGI in the test with SK-OV-3 ovarian is 11.3 µM; with NCI-H23 lung, more than 24.2 µM; in the test on MALME-3M melanoma, 1.18 µM; in the test on NCI-H226 lung, 36 µM.
Turning to `OC(c1ccccc1)(c1cccnc1)C(O)(c1ccccc1)c1cccnc1` (configuration not stated), the TGI in the test with M14 melanoma, in the test on PC-3 prostate, in the test with SF-539 CNS, with MDA-MB-435, in the test with CCRF-CEM leukemia and in the test with HS 578T breast was more than 100 µM in each case. The TGI in the test with SK-OV-3 ovarian, with NCI-H23 lung, in the test with MALME-3M melanoma and in the test with NCI-H226 lung was more than 100 µM each time.
In the case of `C=CCN1CCC2(CC1)NC(=O)c1ccccc1O2`, the TGI with M14 melanoma, in the test on PC-3 prostate, in the test with SF-539 CNS, with MDA-MB-435, with CCRF-CEM leukemia and in the test on HS 578T breast was more than 100 µM in each case. For the same compound, the TGI in the test on SK-OV-3 ovarian, in the test on NCI-H23 lung, in the test on MALME-3M melanoma and in the test with NCI-H226 lung was more than 100 µM in each case.
With `Cc1cc(C)c(N=Nc2c(O)c(S(=O)(=O)O)cc3cc(S(=O)(=O)O)ccc23)cc1C`, the TGI in the test on M14 melanoma, with PC-3 prostate, with MDA-MB-435, with CCRF-CEM leukemia, with HS 578T breast and in the test on SK-OV-3 ovarian was more than 100 µM in each case. Further, the TGI with NCI-H23 lung, with MALME-3M melanoma and with NCI-H226 lung was more than 100 µM throughout.
For `C=CC(Br)(CBr)CCC(Br)C(C)C` (configuration not stated), the TGI amounted to 15.3 µM in the test on M14 melanoma; 19.5 µM with PC-3 prostate; 6.02 µM in the test with SF-539 CNS; 33.5 µM with MDA-MB-435; 3.46 µM in the test with CCRF-CEM leukemia; 7.73 µM with HS 578T breast. The TGI in the test on SK-OV-3 ovarian came to 30.2 µM; in the test on NCI-H23 lung it was 20.8 µM; in the test with MALME-3M melanoma, 28.1 µM; with NCI-H226 lung, 30.8 µM.
Take `CCN(CC)CCC(=O)c1ccc(Oc2ccc(F)cc2)cc1`: the TGI in the test on M14 melanoma came to 34.9 µM; in the test on PC-3 prostate, 71.9 µM; in the test on SF-539 CNS, 31.8 µM; in the test on MDA-MB-435 it was 32.3 µM; with CCRF-CEM leukemia, 50.1 µM; in the test on HS 578T breast, 60.2 µM. Further, the TGI with SK-OV-3 ovarian is more than 100 µM; in the test with NCI-H23 lung, 45.9 µM; in the test with MALME-3M melanoma, 34.9 µM; with NCI-H226 lung it was more than 100 µM.
For `OCC(O)C(O)C(O)C(O)/C=N/Nc1nc(O)c(/C=C2\C=Nc3ccccc32)[nH]1` (configuration not stated), the TGI in the test on M14 melanoma was more than 100 µM; with PC-3 prostate it was 97.5 µM; in the test on SF-539 CNS, more than 100 µM; in the test with MDA-MB-435 it was more than 100 µM; in the test on CCRF-CEM leukemia, more than 100 µM; in the test on HS 578T breast, more than 100 µM. Moreover, the TGI in the test on SK-OV-3 ovarian, in the test with NCI-H23 lung, with MALME-3M melanoma and with NCI-H226 lung was more than 100 µM in each case.
For `O=C(O)CC(O)(C(=O)O)C(O)C(=O)O` (configuration not stated), the TGI in the test with M14 melanoma is more than 1000 µM; in the test with PC-3 prostate, more than 1000 µM; with SF-539 CNS, more than 1000 µM; in the test with MDA-MB-435, more than 1000 µM; in the test on CCRF-CEM leukemia it was more than 1000 µM; in the test on HS 578T breast, 867 µM. In addition, the TGI with SK-OV-3 ovarian, with NCI-H23 lung, with MALME-3M melanoma and in the test on NCI-H226 lung was more than 1000 µM throughout.
Turning to `CC1CC[C@@]2(OC1)OC1C[C@H]3[C@@H]4CCC5CC(O)CC[C@]5(C)[C@H]4C/C(=N\N(C)C)[C@]3(C)C1[C@@H]2C` (some centres not stated), the TGI in the test with M14 melanoma is more than 100 µM; in the test with PC-3 prostate, 84.6 µM; in the test on SF-539 CNS, 60.9 µM; in the test with MDA-MB-435 it was 58.2 µM; with CCRF-CEM leukemia, more than 100 µM; in the test with HS 578T breast it was 97.7 µM. In addition, the TGI in the test with SK-OV-3 ovarian is 47 µM; in the test on NCI-H23 lung, 42.6 µM; with MALME-3M melanoma, more than 100 µM; in the test with NCI-H226 lung it was more than 100 µM.
Consider `Nc1ccc(-c2nc3ccccc3s2)cc1Br`, for which the TGI was more than 100 µM in the test on M14 melanoma; more than 100 µM in the test with PC-3 prostate; more than 78.9 µM with SF-539 CNS; more than 100 µM in the test on MDA-MB-435; more than 100 µM in the test with CCRF-CEM leukemia; more than 100 µM with HS 578T breast. Also, the TGI in the test on SK-OV-3 ovarian, in the test on NCI-H23 lung, in the test on MALME-3M melanoma and with NCI-H226 lung was more than 100 µM throughout.
`CN(C)CCNc1nc2c(no[n+]2[O-])c2ccccc12`: the TGI with M14 melanoma is 30.3 µM; in the test with PC-3 prostate, 89.5 µM; in the test on SF-539 CNS, 27.6 µM; in the test with MDA-MB-435, 35.2 µM; with CCRF-CEM leukemia, more than 100 µM; with HS 578T breast, 76.6 µM. For the same compound, the TGI in the test on SK-OV-3 ovarian is 98.8 µM; in the test on NCI-H23 lung, more than 100 µM; in the test with MALME-3M melanoma, 37.1 µM; with NCI-H226 lung it was 54.9 µM.
As for `O=[N+]([O-])c1cc(Cl)ccc1S(=O)(=O)N1CCCc2cc(Cl)ccc21`, the TGI in the test with M14 melanoma, in the test with PC-3 prostate, in the test with SF-539 CNS, with MDA-MB-435, in the test on CCRF-CEM leukemia and with HS 578T breast was more than 100 µM throughout. For the same compound, the TGI in the test with SK-OV-3 ovarian, in the test with MALME-3M melanoma and in the test on NCI-H226 lung was more than 100 µM throughout.
In the case of `CC1(C)CC[C@]2(C(=O)O)[C@H](O)C[C@]3(C)C(=CC[C@@H]4[C@@]5(C)CC[C@H](OC6OC(C(=O)O)C(O)C(O)C6O)C(C)(C)[C@@H]5CC[C@]43C)[C@@H]2C1` (some centres not stated), the TGI is more than 100 µM in the test on M14 melanoma; more than 100 µM with PC-3 prostate; more than 100 µM with MDA-MB-435; more than 100 µM in the test with CCRF-CEM leukemia; 80.9 µM in the test with HS 578T breast; more than 100 µM with SK-OV-3 ovarian. Besides, the TGI in the test with NCI-H23 lung, with MALME-3M melanoma and with NCI-H226 lung was more than 100 µM in each case.

The values above are taken from PubChem BioAssay (NCI).
